Values of other authors as cited in patent US5739336A, “1,3,8-triaza- and 3,8-diaza-1-oxaspiro [4,5] decane derivatives” (Syntex (U.S.A.) Inc., priority 1996, dated 1998).

Experiments:
rats [1] = test system: rats
migraine = conditions: human, in vivo
rat = conditions: SI and elevated X-maze models
human volunteers [2] = test system: human volunteers
[3] = test system: panic disorder patients or obsessive compulsive disorder patients
human volunteers [4] = test system: human volunteers; remark: listed apart in the source
human volunteers [5] = conditions: for slow wave sleep (SWS): human/healthy volunteers
rats [6] = test system: rats; remark: listed apart in the source
[7] = test system: patients withdrawing from other drugs of abuse

O=C(c1ccc(F)cc1)C1CCN(CCn2c(=O)[nH]c3ccccc3c2=O)CC1 [ketanserin]
alcohol preference (rats [1]): has no affect on preference for alcohol
clinical effectiveness as antimigraine agent (migraine): is not

Clc1cccc(N2CCNCC2)c1 [mCPP, 1-(3-chlorophenyl)piperazine]
anxiogenic effects (rat): produces anxiogenic effects
anxiety on administration (human volunteers [2]): causes anxiety
levels of panic and/or anxiety [3]: increases levels of panic and/or anxiety
migraine-like headaches (human volunteers [4]): causes migraine-like headaches
rapid eye movement sleep (human volunteers [5]; human volunteers): reduces total sleep time, sleep efficiency, slow wave sleep (SWS) and rapid eye movement sleep
sleep efficiency (human volunteers [5]; human volunteers): reduces total sleep time, sleep efficiency
total sleep time (human volunteers [5]; human volunteers): reduces total sleep time
slow wave sleep (SWS) (human volunteers [5]): reduces total sleep time, sleep efficiency, slow wave sleep (SWS)
craving for alcohol (abstaining alcoholics): induces a craving for alcohol
penile erections (rats [6]): produces penile erections in rats

Cc1nc2sccn2c(=O)c1CCN1CCC(=C(c2ccc(F)cc2)c2ccc(F)cc2)CC1 [ritanserin]
alcohol preference (rats [1]): reduces alcohol preference
usefulness in withdrawal from other drugs of abuse [7]: is useful in patients withdrawing from other drugs of abuse
cocaine and fentanyl preference (rat models of addiction): reduces both cocaine and fentanyl preference
alcohol intake (chronic alcoholics): decreases alcohol intake
sleep onset latency (human volunteers [5]; healthy volunteers): reduces sleep onset latency
subjective sleep quality (human volunteers [5]; healthy volunteers): improves subjective sleep quality
slow wave sleep (SWS) (human volunteers [5]): increases SWS
